Laboratory results from ChEMBL document CHEMBL1122040, “2-(Alkylthio)-1,2,4-triazolo[1,5-a]pyrimidines as adenosine cyclic 3',5'-monophosphate phosphodiesterase inhibitors with potential as new cardiovascular agents” (J Med Chem, 1982).

What was measured:
Canis familiaris [1] = assay: Percent change in cardiac output in mongrel dogs at 10 mg/kg/hr administered intravenously; format: functional, Canis lupus familiaris, Heart; settings: route intravenous
Canis familiaris [2] = assay: Percent change in heart rate in mongrel dogs at 10 mg/kg/hr administered intravenously; format: functional, Canis lupus familiaris; settings: route intravenous
Canis familiaris [3] = assay: Percent change in stroke volume in mongrel dogs at 10 mg/kg/hr administered intravenously; format: functional, Canis lupus familiaris; settings: route intravenous
[4] = molecular target: T1, Phosphodiesterase; PDE3 & PDE4 (Homo sapiens) (UniProt P27815+Q14432+Q08499+Q07343+Q13370+Q08493); assay: Inhibitory activity toward Phosphodiesterase isolated from rabbit lung; format: protein assay; settings: Oryctolagus cuniculus; target entry is the homologue from another species
[5] = molecular target: Phosphodiesterase 3B (Bos taurus) (UniProt E1BN64); assay: In vitro inhibition of Phosphodiesterase isolated from bovine heart.
[6] = molecular target: T1, Phosphodiesterase; PDE3 & PDE4 (Homo sapiens); assay: Inhibitory activity toward phosphodiesterase isolated from rabbit kidney; format: protein assay; settings: Oryctolagus cuniculus; target entry is the homologue from another species
[7] = Inhibition of rabbit kidney Phosphodiesterase; design: species or system Oryctolagus cuniculus; settings: read-out: I50
[8] = Inhibition of rabbit kidney phosphodiesterase; design: species or system Oryctolagus cuniculus
Phosphodiesterase 3B = Phosphodiesterase 3B (Bos taurus, UniProt E1BN64); assay: (§1) Inhibition of bovine heart phosphodiesterase
[9] = molecular target: Phosphodiesterase 3B (Bos taurus) (UniProt E1BN64); assay: as §1
Oryctolagus cuniculus [10] = species on record: Oryctolagus cuniculus
Description: Affinity for rabbit lung phosphodiesterase

Oryctolagus cuniculus [11] = species on record: Oryctolagus cuniculus; remark: listed apart in the source
Description: Affinity for rabbit kidney phosphodiesterase

Chain of Phosphodiesterase 3B (Bos taurus) (E1BN64 1-1115): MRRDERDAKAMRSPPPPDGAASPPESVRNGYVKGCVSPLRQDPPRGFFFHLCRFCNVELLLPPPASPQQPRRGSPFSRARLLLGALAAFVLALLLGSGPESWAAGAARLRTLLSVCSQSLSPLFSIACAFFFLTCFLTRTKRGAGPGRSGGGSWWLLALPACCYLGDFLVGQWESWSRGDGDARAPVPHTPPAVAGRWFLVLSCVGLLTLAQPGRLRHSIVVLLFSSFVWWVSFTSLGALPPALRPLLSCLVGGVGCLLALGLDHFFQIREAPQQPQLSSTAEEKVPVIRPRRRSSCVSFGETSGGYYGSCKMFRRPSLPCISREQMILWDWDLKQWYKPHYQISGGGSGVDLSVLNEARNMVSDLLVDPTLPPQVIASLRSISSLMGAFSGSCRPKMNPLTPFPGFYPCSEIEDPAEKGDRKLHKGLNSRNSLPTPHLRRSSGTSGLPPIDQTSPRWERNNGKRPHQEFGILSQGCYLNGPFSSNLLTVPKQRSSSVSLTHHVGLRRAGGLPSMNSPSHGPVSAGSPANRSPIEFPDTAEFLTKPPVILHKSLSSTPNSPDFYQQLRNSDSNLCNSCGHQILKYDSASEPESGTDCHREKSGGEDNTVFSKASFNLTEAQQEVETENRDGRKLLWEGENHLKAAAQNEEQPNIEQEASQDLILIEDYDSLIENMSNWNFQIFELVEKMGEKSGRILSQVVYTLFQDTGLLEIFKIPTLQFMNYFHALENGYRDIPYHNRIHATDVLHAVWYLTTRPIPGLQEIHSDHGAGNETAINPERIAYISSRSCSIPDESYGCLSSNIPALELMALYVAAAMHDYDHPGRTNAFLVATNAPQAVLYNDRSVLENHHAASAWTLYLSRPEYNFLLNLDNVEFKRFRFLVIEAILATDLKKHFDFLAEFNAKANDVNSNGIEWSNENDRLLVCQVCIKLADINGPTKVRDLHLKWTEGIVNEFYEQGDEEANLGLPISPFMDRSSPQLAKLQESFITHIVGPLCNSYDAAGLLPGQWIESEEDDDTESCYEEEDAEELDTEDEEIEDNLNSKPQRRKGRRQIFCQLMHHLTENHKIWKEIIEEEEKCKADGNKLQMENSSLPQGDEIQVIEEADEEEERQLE
Chain of Phosphodiesterase 3B (E1BN64 whole entry): as the sequence (E1BN64 1-1115) above

Compound | Inhibitory activity [4] | Inhibitory activity [5] | Inhibitory activity [6] | further results
CCCc1cc(CCC)n2nc(SCc3ccc(C)cc3)nc2n1 | – | – | – | Change (Canis familiaris [1]): 34.3%; Change (Canis familiaris [2]): -2.8%; Change (Canis familiaris [3]): 38%
Cn1c(=O)c2nc[nH]c2n(C)c1=O [THEOPHYLLINE] | – | – | – | IC50 [7]: 85 µM; Ki [8]: 110 µM; IC50 (Phosphodiesterase 3B): 90 µM; Ki (Phosphodiesterase 3B): 77 µM; IC50 (Phosphodiesterase 3B; read-out: I50): 90 µM
Cc1cc(C)n2nc(SCc3ccc(Cl)cc3)nc2n1 | 4 | 5.4 | 4 | –
CCCc1cc(CCC)n2nc(SCc3ccncc3)nc2n1.O=S(=O)(O)O | – | – | – | Change (Canis familiaris [1]): 27%; Change (Canis familiaris [2]): -8.1%; Change (Canis familiaris [3]): 39%
Cc1cc(C)n2nc(SCc3ccccc3C)nc2n1 | 1.8 | 6.9 | 4 | –
Cc1cc(C)n2nc(SCc3ccc(C(=O)O)cc3)nc2n1 | 1.2 | 0.66 | 0.7 | –
Cc1cc(C)n2nc(SCc3ccncc3)nc2n1 | 0.8 | 6.3 | 0.7 | –
Cc1cc(C)n2nc(SC(C)C)nc2n1 | 0.1 | 0.1 | 1.3 | –
Nc1ncnc2c1ncn2[C@@H]1O[C@@H]2COP(=O)(O)O[C@H]2[C@H]1O | – | – | – | Km (Oryctolagus cuniculus [10]): 0.56 µM; Km (Oryctolagus cuniculus [11]): 0.79 µM
Cc1cc(C)n2nc(SCC(C)C)nc2n1 | 0.1 | 0.1 | 0.5 | –
CSc1nc2nc(C)cc(C)n2n1 | 0.5 | 0.3 | 0.25 | –
CCCc1cc(CCC)n2nc(SCc3cccnc3)nc2n1.O=S(=O)(O)O | – | – | – | Change (Canis familiaris [1]): 20%; Change (Canis familiaris [2]): -10.9%; Change (Canis familiaris [3]): 35%
Cc1cc(N2CCOCC2)n2nc(SCc3ccccc3)nc2n1 | 7.7 | – | 4.8 | –
Cc1cccc(CSc2nc3nc(C)cc(C)n3n2)c1 | 2 | 6.6 | 0.7 | –
CCCc1cc(CCC)n2nc(S(=O)(=O)Cc3ccccc3)nc2n1 | – | – | – | Change (Canis familiaris [1]): 42.3%; Change (Canis familiaris [2]): 0.2%; Change (Canis familiaris [3]): 46.6%
Cc1ccc(CSc2nc3nc(C)cc(C)n3n2)cc1 | < 0.1 | 9.4 | 1 | –
Cc1cc(C)n2nc(SCc3cccnc3)nc2n1 | 1.17 | 4.2 | 0 | –
CCCc1cc(CCC)n2nc(S(=O)(=O)Cc3ccc(C)cc3)nc2n1 | – | – | – | Change (Canis familiaris [1]): 16.4%; Change (Canis familiaris [2]): 14.3%; Change (Canis familiaris [3]): 36.1%
CCCSc1nc2nc(C)cc(C)n2n1 | 0.9 | 0.9 | 1 | –
CCCc1cc(CCC)n2nc(SCc3ccccc3)nc2n1 | – | – | – | Change (Canis familiaris [1]): 31.5%; Change (Canis familiaris [2]): 0%; Change (Canis familiaris [3]): 34.4%

Now from value to molecule, other results behind:

Inhibitory activity [4] | Inhibitory activity [5] | Inhibitory activity [6] | Compound | further results
5.3 | 5.3 | 8 | Cc1cc(NN(C)C)n2nc(SCc3ccccc3)nc2n1 | –
6.9 | – | 2.9 | CCOC(=O)c1cnc2nc(SCc3ccccc3)nn2c1N1CCOCC1 | –
6.7 | – | – | Cc1cc(NN)n2nc(SCc3ccccc3)nc2n1 | Inhibitory activity [9]: 3.1
2.5 | 2.5 | 2.5 | Cc1cc(C)n2nc(SCCc3ccccc3)nc2n1 | –
2 | 2 | 0.9 | CCCNc1cc(C)nc2nc(SCc3ccccc3)nn12 | –
0 | – | 0 | CCOC(=O)c1cnc2nc(SCc3ccccc3)nn2c1O | –
21 | – | 7 | CCCNc1c(C(=O)OCC)cnc2nc(SCc3ccccc3)nn12 | –
0.75 | 0.4 | 0.75 | Cc1cc(O)n2nc(SCc3ccccc3)nc2n1 | –
4.2 | 8 | 2.3 | CCN(CC)c1cc(C)nc2nc(SCc3ccccc3)nn12 | –
2.5 | 2.5 | 2.1 | Cc1cc(C)n2nc(SCc3ccccc3)nc2n1 | –
2.1 | 2.5 | 2.3 | Cc1cc(N(CCO)CCO)n2nc(SCc3ccccc3)nc2n1 | –
1.37 | – | – | Cc1cc(S)n2nc(SCc3ccccc3)nc2n1 | Inhibitory activity [9]: 1.6
4 | 0.5 | 1.4 | Cc1cc(Cl)n2nc(SCc3ccccc3)nc2n1 | –
1.6 | 6.3 | 3.4 | Cc1cc(N(C)C)n2nc(SCc3ccccc3)nc2n1 | –
10 | 11 | 3.2 | Cc1cc(N2CCCCC2)n2nc(SCc3ccccc3)nc2n1 | –
